Data published in patent US12258327B2, “5-membered heteroaryl-containing aminopyridine compounds as EGFR inhibitors” (YUHAN CORPORATION, priority 2021, dated 2025).
Read-outs that look alike come from different tables or passages of the source.

What was measured:
EGFR del19/T790M/C797S = EGFR del19/T790M/C797S (Homo sapiens, UniProt P00533, C797S/DEL746-750/T790M); assay: Biochemical EGFR kinase assay (Lance Ultra TR-FRET), triple mutant del19/T790M/C797S
Protocol: (§1) Biochemical EGFR kinase assays were conducted using Lance Ultra time-resolved fluorescence resonance energy transfer (TR-FRET) technology from Perkin-Elmer. Compounds of the invention were initially diluted to 20 mM in 100% DMSO for storage and made into kinase buffer solution to create a compound concentration ranging from 0.003 μM and 10 μM.
(§2) Each kinase reactions were incubated at room temperature for 1 hour and then stopped by the addition of 4 μL of stop solution (10 mM EDTA). The specific Europium-labeled-anti-phosphopeptide antibody (PerkinElmer, AD0069) diluted in LANCE detection buffer was then added to a final concentration of 2 nM. After 60 minutes incubation at room temperature the LANCE signal was measured on an EnVision Multilabel Reader (Perkin-Elmer). Excitation wavelength was set at 320 nm and emission monitored at 615 nm (donor) and 665 nm (acceptor). The IC50 values were determined using GraphPad prism software (GraphPad Software, Inc., San Diego, CA, USA).

EGFR L858R/T790M/C797S = EGFR L858R/T790M/C797S (Homo sapiens, UniProt P00533, C797S/L858R/T790M); assay: Biochemical EGFR kinase assay (Lance Ultra TR-FRET), triple mutant L858R/T790M/C797S
Protocol: as §1, §2

EGFR del19/C797S = EGFR del19/C797S (Homo sapiens, UniProt P00533, C797S/DEL746-750); assay: Biochemical EGFR kinase assay (Lance Ultra TR-FRET), double mutant del19/C797S
Protocol: as §1, §2

EGFR wildtype (WT) = EGFR wildtype (WT) (Homo sapiens, UniProt P00533); assay: Biochemical EGFR kinase assay (Lance Ultra TR-FRET), wildtype
Protocol: as §1, §2

EGFR L858R/C797S = EGFR L858R/C797S (Homo sapiens, UniProt P00533, C797S/L858R); assay: Biochemical EGFR kinase assay (Lance Ultra TR-FRET), double mutant L858R/C797S
Protocol: as §1, §2

[1] = Km ATP, read-out: IC50 del19/T790M/C797S (nM) Km ATP
[2] = Km ATP, read-out: IC50 L858R/T790M/C797S (nM) Km ATP
[3] = Km ATP, read-out: IC50 del19/C797S (nM) Km ATP
[4] = Km ATP, read-out: IC50 WT (nM) Km ATP
[5] = IC50 L858R/T790M/C797S (nM) 100 μM ATP, 100 μM ATP
[6] = IC50 del19/C797S (nM) 100 μM ATP, 100 μM ATP
[7] = IC50 L858R/C797S (nM) 100 μM ATP, 100 μM ATP
[8] = IC50 WT (nM) 100 μM ATP, 100 μM ATP
[9] = Km ATP, read-out: IC50 L858R/C797S (nM) Km ATP
[10] = Km ATP, read-out: IC50 L858R/T790M/C797S, Km ATP
[11] = Km ATP, read-out: IC50 del19/C797S, Km ATP
[12] = Km ATP, read-out: IC50 WT, Km ATP
[13] = Km ATP, read-out: IC50 L858R/C797S, Km ATP

Sequence of EGFR del19/T790M/C797S (P00533 with tags, fused parts or gaps DEL746-750/T790M/C797S): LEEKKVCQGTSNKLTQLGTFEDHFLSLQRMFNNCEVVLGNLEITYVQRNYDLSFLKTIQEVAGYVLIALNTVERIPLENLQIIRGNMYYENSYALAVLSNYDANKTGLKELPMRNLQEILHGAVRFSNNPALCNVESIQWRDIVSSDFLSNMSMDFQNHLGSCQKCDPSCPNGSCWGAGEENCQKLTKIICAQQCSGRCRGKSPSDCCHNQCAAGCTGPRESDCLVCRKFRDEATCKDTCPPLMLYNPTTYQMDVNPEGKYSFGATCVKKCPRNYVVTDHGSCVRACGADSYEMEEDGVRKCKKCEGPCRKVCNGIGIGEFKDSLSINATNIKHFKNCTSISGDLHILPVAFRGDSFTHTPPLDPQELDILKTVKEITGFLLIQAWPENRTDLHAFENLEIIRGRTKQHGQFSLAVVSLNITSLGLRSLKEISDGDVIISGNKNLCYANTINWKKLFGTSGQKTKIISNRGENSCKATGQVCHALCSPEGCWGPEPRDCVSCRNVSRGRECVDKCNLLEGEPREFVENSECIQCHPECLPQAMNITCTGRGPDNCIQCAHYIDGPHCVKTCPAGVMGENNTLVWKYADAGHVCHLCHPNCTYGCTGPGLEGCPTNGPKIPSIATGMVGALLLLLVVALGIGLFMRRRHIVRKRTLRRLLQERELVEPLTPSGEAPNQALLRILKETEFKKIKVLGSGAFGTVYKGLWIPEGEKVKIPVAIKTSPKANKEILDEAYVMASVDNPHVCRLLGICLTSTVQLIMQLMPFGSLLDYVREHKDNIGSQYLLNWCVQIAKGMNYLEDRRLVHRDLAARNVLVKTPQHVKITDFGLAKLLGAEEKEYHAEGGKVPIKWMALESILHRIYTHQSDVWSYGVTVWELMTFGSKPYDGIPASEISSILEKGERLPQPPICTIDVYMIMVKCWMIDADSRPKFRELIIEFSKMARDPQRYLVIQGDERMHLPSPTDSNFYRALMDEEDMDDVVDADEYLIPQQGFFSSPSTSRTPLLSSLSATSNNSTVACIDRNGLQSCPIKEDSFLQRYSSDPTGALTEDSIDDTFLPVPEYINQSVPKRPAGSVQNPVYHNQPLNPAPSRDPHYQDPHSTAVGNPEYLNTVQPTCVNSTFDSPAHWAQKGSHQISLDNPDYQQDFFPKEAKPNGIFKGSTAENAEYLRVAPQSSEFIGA
Sequence of EGFR del19/C797S (P00533 with tags, fused parts or gaps DEL746-750/C797S): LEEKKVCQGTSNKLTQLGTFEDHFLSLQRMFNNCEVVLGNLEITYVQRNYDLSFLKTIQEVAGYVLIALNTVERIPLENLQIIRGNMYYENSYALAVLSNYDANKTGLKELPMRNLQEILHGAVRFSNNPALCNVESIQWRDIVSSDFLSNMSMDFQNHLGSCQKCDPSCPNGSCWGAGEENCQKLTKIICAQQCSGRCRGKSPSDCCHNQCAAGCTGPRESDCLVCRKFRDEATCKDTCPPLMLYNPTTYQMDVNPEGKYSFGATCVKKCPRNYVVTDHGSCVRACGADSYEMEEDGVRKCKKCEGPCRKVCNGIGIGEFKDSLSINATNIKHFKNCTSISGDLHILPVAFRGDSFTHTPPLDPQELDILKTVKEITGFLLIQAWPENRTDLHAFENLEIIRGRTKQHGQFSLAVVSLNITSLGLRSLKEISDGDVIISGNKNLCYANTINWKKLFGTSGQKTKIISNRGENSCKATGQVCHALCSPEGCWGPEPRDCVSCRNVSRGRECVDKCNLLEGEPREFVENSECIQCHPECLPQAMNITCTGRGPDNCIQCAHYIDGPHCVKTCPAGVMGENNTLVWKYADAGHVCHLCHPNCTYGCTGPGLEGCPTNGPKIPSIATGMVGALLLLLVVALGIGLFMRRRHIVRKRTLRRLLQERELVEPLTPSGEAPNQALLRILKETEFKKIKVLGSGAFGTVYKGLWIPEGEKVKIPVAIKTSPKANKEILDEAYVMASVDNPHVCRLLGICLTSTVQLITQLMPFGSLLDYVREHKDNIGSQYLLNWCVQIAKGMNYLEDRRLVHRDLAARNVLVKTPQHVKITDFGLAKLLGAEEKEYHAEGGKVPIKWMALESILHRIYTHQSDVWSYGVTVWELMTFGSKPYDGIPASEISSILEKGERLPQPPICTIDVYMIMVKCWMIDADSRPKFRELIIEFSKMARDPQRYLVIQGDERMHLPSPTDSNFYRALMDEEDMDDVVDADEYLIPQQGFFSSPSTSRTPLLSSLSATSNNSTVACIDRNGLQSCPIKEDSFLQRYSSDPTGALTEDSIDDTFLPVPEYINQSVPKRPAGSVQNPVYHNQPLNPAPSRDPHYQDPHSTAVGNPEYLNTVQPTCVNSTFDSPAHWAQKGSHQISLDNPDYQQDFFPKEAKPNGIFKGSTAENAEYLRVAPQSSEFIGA
Sequence of EGFR L858R/T790M/C797S (P00533 25-1210 T790M/C797S/L858R): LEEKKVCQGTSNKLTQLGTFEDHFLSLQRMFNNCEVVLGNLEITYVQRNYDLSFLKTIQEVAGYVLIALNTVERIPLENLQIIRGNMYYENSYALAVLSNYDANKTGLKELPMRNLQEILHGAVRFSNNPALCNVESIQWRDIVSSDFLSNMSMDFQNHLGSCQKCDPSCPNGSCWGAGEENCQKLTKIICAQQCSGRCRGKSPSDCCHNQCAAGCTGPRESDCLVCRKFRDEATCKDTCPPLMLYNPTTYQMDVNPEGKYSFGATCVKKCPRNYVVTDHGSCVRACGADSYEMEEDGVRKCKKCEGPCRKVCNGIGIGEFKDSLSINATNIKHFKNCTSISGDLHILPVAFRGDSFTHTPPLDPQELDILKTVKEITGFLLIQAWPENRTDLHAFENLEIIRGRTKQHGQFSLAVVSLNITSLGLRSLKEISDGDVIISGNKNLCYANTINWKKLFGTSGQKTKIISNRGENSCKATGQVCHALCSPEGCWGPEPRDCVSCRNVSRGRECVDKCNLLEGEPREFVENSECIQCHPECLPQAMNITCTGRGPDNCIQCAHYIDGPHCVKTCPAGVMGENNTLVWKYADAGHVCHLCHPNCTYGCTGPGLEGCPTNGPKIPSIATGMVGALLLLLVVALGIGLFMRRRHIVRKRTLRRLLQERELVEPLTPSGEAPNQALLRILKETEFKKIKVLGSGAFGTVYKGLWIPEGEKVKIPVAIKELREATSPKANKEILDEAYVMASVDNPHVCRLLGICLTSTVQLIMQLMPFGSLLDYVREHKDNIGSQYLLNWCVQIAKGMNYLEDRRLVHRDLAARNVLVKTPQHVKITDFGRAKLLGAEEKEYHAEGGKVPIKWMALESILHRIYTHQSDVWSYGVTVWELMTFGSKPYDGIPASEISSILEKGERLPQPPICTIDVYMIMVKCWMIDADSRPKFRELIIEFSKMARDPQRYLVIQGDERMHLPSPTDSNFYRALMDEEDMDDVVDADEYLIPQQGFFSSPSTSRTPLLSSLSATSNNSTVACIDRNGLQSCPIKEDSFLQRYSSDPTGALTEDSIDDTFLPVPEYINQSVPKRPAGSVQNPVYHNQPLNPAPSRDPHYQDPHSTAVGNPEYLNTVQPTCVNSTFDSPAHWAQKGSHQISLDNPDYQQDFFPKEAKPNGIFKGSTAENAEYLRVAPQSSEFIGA
Sequence of EGFR L858R/C797S (P00533 25-1210 C797S/L858R): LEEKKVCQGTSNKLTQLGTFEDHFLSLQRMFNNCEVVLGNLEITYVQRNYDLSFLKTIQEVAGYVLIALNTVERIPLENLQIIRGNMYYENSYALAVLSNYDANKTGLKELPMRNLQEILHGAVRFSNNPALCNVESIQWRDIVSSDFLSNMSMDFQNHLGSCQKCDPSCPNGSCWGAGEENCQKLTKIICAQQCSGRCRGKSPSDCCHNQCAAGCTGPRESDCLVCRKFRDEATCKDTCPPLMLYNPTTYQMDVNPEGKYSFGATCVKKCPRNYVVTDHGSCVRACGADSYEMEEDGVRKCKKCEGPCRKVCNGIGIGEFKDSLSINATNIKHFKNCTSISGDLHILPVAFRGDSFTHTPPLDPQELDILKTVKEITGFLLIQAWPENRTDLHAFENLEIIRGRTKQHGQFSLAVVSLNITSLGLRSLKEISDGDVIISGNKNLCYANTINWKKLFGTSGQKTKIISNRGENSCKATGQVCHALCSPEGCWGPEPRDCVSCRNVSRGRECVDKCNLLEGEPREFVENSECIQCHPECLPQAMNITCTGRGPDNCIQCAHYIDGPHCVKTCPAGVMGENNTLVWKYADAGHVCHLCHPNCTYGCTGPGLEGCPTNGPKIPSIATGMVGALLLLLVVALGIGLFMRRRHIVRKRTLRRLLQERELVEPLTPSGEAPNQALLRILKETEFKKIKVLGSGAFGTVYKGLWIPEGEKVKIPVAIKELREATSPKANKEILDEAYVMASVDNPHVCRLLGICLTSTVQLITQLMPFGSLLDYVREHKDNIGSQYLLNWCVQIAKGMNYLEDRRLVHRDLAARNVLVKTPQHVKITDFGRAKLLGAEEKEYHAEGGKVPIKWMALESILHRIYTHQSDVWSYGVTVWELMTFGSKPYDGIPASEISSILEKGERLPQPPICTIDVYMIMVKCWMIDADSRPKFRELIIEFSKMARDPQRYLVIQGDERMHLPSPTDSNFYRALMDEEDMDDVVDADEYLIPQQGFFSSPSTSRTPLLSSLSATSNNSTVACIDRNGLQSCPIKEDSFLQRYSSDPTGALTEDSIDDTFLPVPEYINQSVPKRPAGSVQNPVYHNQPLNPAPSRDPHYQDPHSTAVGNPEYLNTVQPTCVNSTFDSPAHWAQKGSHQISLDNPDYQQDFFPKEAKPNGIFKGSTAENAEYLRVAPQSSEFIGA

Row | IC50 (EGFR del19/T790M/C797S; [1]) | IC50 (EGFR L858R/T790M/C797S; [2]) | IC50 (EGFR del19/C797S; [3]) | IC50 (EGFR wildtype (WT); [4]) | IC50 (EGFR del19/C797S; [6]) | IC50 (EGFR L858R/C797S; [7]) | IC50 (EGFR wildtype (WT); [8]) | other results | Structure (SMILES)
1 | 99 nM | 5.9 nM | 63 nM | 88.5 nM |  |  |  |  | Cn1cc(C#Cc2cc(Nc3ccnc(-c4cnn(S(=O)(=O)C5CC5)c4)n3)ncc2-c2cnn(C3CC3)c2)cn1 [Example 1, N-(5-(1-Cyclopropyl-1H-pyrazol-4-yl)-4-((1-methyl-1H-pyrazol-4-yl)ethynyl)pyridin-2-yl)-2-(1-(cyclopropylsulfonyl)-1H-pyrazol-4-yl)pyrimidin-4-amine]
2 | 6.4 nM |  | 39.7 nM | 229 nM |  |  |  |  | Cn1cc(C#Cc2cc(Nc3ccnc(-c4cnn(S(=O)(=O)C5CC5)c4)n3)ncc2-c2cnn(CC3CC3)c2)cn1 [Example 3, N-(5-(1-(Cyclopropylmethyl)-1H-pyrazol-4-yl)-4-((1-methyl-1H-pyrazol-4-yl)ethynyl)pyridin-2-yl)-2-(1-(cyclopropylsulfonyl)-1H-pyrazol-4-yl)pyrimidin-4-amine]
3 | 10.6 nM | 13.2 nM | 317 nM |  |  |  |  |  | O=S(=O)(C1CC1)n1cc(-c2nccc(Nc3cc(C#Cc4cnn(C5CC5)c4)c(-c4cnn(C5CC5)c4)cn3)n2)cn1 [Example 5, N-(5-(1-Cyclopropyl-1H-pyrazol-4-yl)-4-((1-cyclopropyl-1H-pyrazol-4-yl)ethynyl)pyridin-2-yl)-2-(1-(cyclopropylsulfonyl)-1H-pyrazol-4-yl)pyrimidin-4-amine]
4 | 16.1 nM | 19.5 nM | 347 nM |  |  |  |  |  | CC(C)n1cc(C#Cc2cc(Nc3ccnc(-c4cnn(S(=O)(=O)C5CC5)c4)n3)ncc2-c2cnn(C3CC3)c2)cn1 [Example 6, N-(5-(1-Cyclopropyl-1H-pyrazol-4-yl)-4-((1-isopropyl-1H-pyrazol-4-yl)ethynyl)pyridin-2-yl)-2-(1-(cyclopropylsulfonyl)-1H-pyrazol-4-yl)pyrimidin-4-amine]
5 |  |  |  |  | 3.2 nM | 2.7 nM | 1060 nM | IC50 (EGFR L858R/T790M/C797S; [5]): 1.3 nM | C[C@]1(O)CC[C@@H](Nc2cc(Nc3ccnc(-c4cnn(S(=O)(=O)C5CC5)c4)n3)ncc2-c2ccn(C(F)F)n2)CC1 [Example 10, (1s,4s)-4-((2-((2-(1-(Cyclopropylsulfonyl)-1H-pyrazol-4-yl)pyrimidin-4-yl)amino)-5-(1-(difluoromethyl)-1H-pyrazol-3-yl)pyridin-4-yl)amino)-1-methylcyclohexan-1-ol]
6 |  | 0.7 nM | 1.8 nM | 4.4 nM | 2.2 nM | 7.7 nM | > 10000 nM | IC50 (EGFR L858R/T790M/C797S; [5]): 3.3 nM; IC50 (EGFR L858R/C797S; [9]): 2.2 nM | O=S(=O)(C1CC1)n1cc(-c2nccc(Nc3cc(N[C@H]4CC[C@@H](NCC(F)F)CC4)c(-c4cc5n(n4)CCCC5)cn3)n2)cn1 [Example 63, N^2-(2-(1-(Cyclopropylsulfonyl)-1H-pyrazol-4-yl)pyrimidin-4-yl)-N^4-((1s,4s)-4-((2,2-difluoroethyl)amino)cyclohexyl)-5-(4,5,6,7-tetrahydropyrazolo[1,5-a]pyridin-2-yl)pyridine-2,4-diamine]
7 |  |  |  |  | 5.3 nM | 15.7 nM | > 10000 nM | IC50 (EGFR del19/T790M/C797S; IC50 del19/T790M/C797S (nM) 100 μM ATP, 100 μM ATP): 4 nM | CC(C)(O)c1nc(-c2cnc(Nc3ccnc(-c4cnn(S(=O)(=O)C5CC5)c4)n3)cc2N[C@H]2CC[C@@](C)(O)CC2)cs1 [Example 93, (1s,4s)-4-((2-((2-(1-(Cyclopropylsulfonyl)-1H-pyrazol-4-yl)pyrimidin-4-yl)amino)-5-(2-(2-hydroxypropan-2-yl)thiazol-4-yl)pyridin-4-yl)amino)-1-methylcyclohexan-1-ol]
8 |  | 0.5 nM | 0.7 nM | 5.7 nM | 1.1 nM | 58 nM | > 10000 nM | IC50 (EGFR L858R/T790M/C797S; [5]): 2.1 nM; IC50 (EGFR L858R/C797S; [9]): 4.5 nM | O=S(=O)(C1CC1)n1cc(-c2nccc(Nc3cc(N[C@H]4CC[C@@H](CCO)CC4)c(-c4ccn(C(F)F)n4)cn3)n2)cn1 [Example 135, 2-((1s,4s)-4-((2-((2-(1-(Cyclopropylsulfonyl)-1H-pyrazol-4-yl)pyrimidin-4-yl)amino)-5-(1-(difluoromethyl)-1H-pyrazol-3-yl)pyridin-4-yl)amino)cyclohexyl)ethan-1-ol]
9 |  | 0.8 nM | 93.9 nM | 51.5 nM |  |  |  | IC50 (EGFR L858R/C797S; [9]): 32.6 nM | OCC[C@H]1CC[C@H](Nc2cc(Nc3ccnc(-c4cnn(CC(F)F)c4)n3)ncc2-c2ccn(C(F)F)n2)CC1 [Example 147, 2-((1r,4r)-4-((2-((2-(1-(2,2-Difluoroethyl)-1H-pyrazol-4-yl)pyrimidin-4-yl)amino)-5-(1-(difluoromethyl)-1H-pyrazol-3-yl)pyridin-4-yl)amino)cyclohexyl)ethan-1-ol]
10 | 0.7 nM | 0.5 nM | 15.4 nM | 282 nM |  |  |  |  | C[C@]1(O)CC[C@@H](Nc2cc(Nc3ccnc(-c4cnn(S(=O)(=O)C5CC5)c4)n3)ncc2-n2ccc(OC(F)F)n2)CC1 [Example 187, (1s,4s)-4-((2-((2-(1-(Cyclopropylsulfonyl)-1H-pyrazol-4-yl)pyrimidin-4-yl)amino)-5-(3-(difluoromethoxy)-1H-pyrazol-1-yl)pyridin-4-yl)amino)-1-methylcyclohexan-1-ol]
11 | 3.1 nM |  |  | 5.9 nM | 0.9 nM |  | 7310 nM | IC50 (EGFR L858R/T790M/C797S; [5]): 1.3 nM | C[C@]1(O)CC[C@@H](Nc2cc(Nc3ccnc(-c4cnn(S(=O)(=O)C5CC5)c4)n3)ncc2-c2cn(C(F)F)cn2)CC1 [Example 273, (1s,4s)-4-((2-((2-(1-(Cyclopropylsulfonyl)-1H-pyrazol-4-yl)pyrimidin-4-yl)amino)-5-(1-(difluoromethyl)-1H-imidazol-4-yl)pyridin-4-yl)amino)-1-methylcyclohexan-1-ol]
12 |  | 0.7 nM | 2.3 nM | 3.2 nM |  |  |  | IC50 (EGFR L858R/C797S; [9]): 0.6 nM | C[C@]1(O)CC[C@@H](Nc2cc(Nc3ccnc(-c4cnn(S(=O)(=O)C5CC5)c4)n3)ncc2-c2ccn(C(F)(F)F)n2)CC1 [Example 285, (1s,4s)-4-((2-((2-(1-(Cyclopropylsulfonyl)-1H-pyrazol-4-yl)pyrimidin-4-yl)amino)-5-(1-(trifluoromethyl)-1H-pyrazol-3-yl)pyridin-4-yl)amino)-1-methylcyclohexan-1-ol]
13 |  |  |  | 17.4 nM | 2.7 nM | 27.4 nM | > 10000 nM |  | C[C@]1(O)CC[C@@H](Nc2cc(Nc3ccnc(-c4cnn(S(=O)(=O)C5CC5)c4)n3)ncc2-c2ccn(CC(F)(F)F)n2)CC1 [Example 289, (1s,4s)-4-((2-((2-(1-(Cyclopropylsulfonyl)-1H-pyrazol-4-yl)pyrimidin-4-yl)amino)-5-(1-(2,2,2-trifluoroethyl)-1H-pyrazol-3-yl)pyridin-4-yl)amino)-1-methylcyclohexan-1-ol]
14 |  |  |  |  |  |  |  | IC50 (EGFR del19/T790M/C797S; Km ATP, read-out: IC50 del19/T790M/C797S, Km ATP): 4.4 nM; IC50 (EGFR L858R/T790M/C797S; [10]): 2.9 nM; IC50 (EGFR del19/C797S; [11]): 16.5 nM; IC50 (EGFR wildtype (WT); [12]): 61.5 nM | Cn1nc(-c2cnc(Nc3ccnc(-c4cnn(CC(F)F)c4)n3)cc2N[C@H]2CC[C@@H](CCO)CC2)cc1C(F)(F)F [Example 333, 2-((1s,4s)-4-((2-((2-(1-(2,2-Difluoroethyl)-1H-pyrazol-4-yl)pyrimidin-4-yl)amino)-5-(1-methyl-5-(trifluoromethyl)-1H-pyrazol-3-yl)pyridin-4-yl)amino)cyclohexyl)ethan-1-ol]
15 |  |  |  |  |  |  |  | IC50 (EGFR L858R/T790M/C797S; [10]): 0.9 nM; IC50 (EGFR del19/C797S; [11]): 22 nM; IC50 (EGFR L858R/C797S; [13]): 14.8 nM; IC50 (EGFR wildtype (WT); [12]): 48.4 nM | Cc1nn(CC(F)(F)F)cc1-c1nccc(Nc2cc(N[C@H]3CC[C@@](C)(O)CC3)c(-c3ccn(C(F)(F)F)n3)cn2)n1 [Example 341, (1s,4s)-1-Methyl-4-((2-((2-(3-methyl-1-(2,2,2-trifluoroethyl)-1H-pyrazol-4-yl)pyrimidin-4-yl)amino)-5-(1-(trifluoromethyl)-1H-pyrazol-3-yl)pyridin-4-yl)amino)cyclohexan-1-ol]
16 |  |  |  |  |  |  |  | IC50 (EGFR L858R/T790M/C797S; [10]): 2.3 nM; IC50 (EGFR del19/C797S; [11]): 45.4 nM; IC50 (EGFR L858R/C797S; [13]): 48.4 nM; IC50 (EGFR wildtype (WT); [12]): 306 nM | CC(C)(O)[C@H]1CC[C@@H](Nc2nc(Nc3ccnc(-c4cnn(S(=O)(=O)C5CC5)c4)c3)ncc2-c2ccn(C(F)F)n2)CC1 [Example 365, 2-((1s,4s)-4-((2-((2-(1-(Cyclopropylsulfonyl)-1H-pyrazol-4-yl)pyridin-4-yl)amino)-5-(1-(difluoromethyl)-1H-pyrazol-3-yl)pyrimidin-4-yl)amino)cyclohexyl)propan-2-ol]
